This assay has as its system rat myocardial ischemia/reperfusion injury. Nature of the assay: Rat myocardial ischemia/reperfusion injury, extent of myocardial infarction (TTC staining). The following applies: 1 mg/kg everyday, peritoneal, five days to the day before; 30 min ischemia, 24 hours reperfusion; control group approx. 35.6%. The assay is classed as in vivo. The method, then: Rats (male, 250 to 280 g) were subjected to coronary artery ligation according to J. Pathol. 180, 305-310 (1996). Briefly, rats were anesthetized with sodium pentobarbital (40 mg Kg^−1, intraperitoneally), intubated, and ventilated with room air (tidal volume, 20 ml/Kg, […]) with a respirator (SN-480-7, Shinano Manufacturing Co., Ltd., Tokyo, Japan). After lateral thoracotomy and pericardiectomy, a 6-0 silk stitch was placed near the intramyocardial location of the left coronary artery beneath the left atrial appendage. Coronary artery occlusion was performed by pressing a short length of tube over the ends of the suture and clamping it firmly against the heart. Reperfusion was achieved by removing the clamp. The standard limb lead II electrocardiogram was monitored continuously. The ischemia and reperfusion of the regional myocardium were confirmed by following the changes of the ST segment level on the electrocardiogram and observing the change in the color of the myocardium.
eIF5A is deoxyhypusinated by deoxyhypusine synthase (DHS) in the cytoplasm (deoxyhypusine eIF5A) and then hypusinated by deoxyhypusine hydroxylase (DOHH) (hypusinated eIF5A). eIF5A is further secreted extracellularly by an oxidative stress stimulus as secreted eIF5A and acquire the apoptosis-inducing activity. […]

On to `N=C(N)NCCCCCCCN` [GC7, N1-guanyl-1,7-diaminoheptane], for which the “extent of myocardial infarction” value is “approx. 13.4%”.

The values are drawn from patent publication US8492521B2, “Oxidative stress responsive apoptosis inducing protein eIF5A” (priority 2008, dated 2013).
